Measured values published in paper PMC11237586, “4′-Fluorouridine inhibits alphavirus replication and infection in vitro and in vivo” (mBio, 2024).

Tests used:
[1] = target: CHIKV nsP4 (RdRp) with SFV P123, mixed trans-replicase (Chikungunya virus strain S27-African prototype, UniProt Q8JUX6); test: cell-based
[2] = target: SFV nsP4 (RdRp) with SFV P123, trans-replicase (Semliki Forest virus, UniProt P08411); test: trans-replicase Gaussia luciferase reporter assay in transfected U-2 OS cells; format: cell-based
Sequence of SFV nsP4 (RdRp) with SFV P123, trans-replicase (P08411 1-1818): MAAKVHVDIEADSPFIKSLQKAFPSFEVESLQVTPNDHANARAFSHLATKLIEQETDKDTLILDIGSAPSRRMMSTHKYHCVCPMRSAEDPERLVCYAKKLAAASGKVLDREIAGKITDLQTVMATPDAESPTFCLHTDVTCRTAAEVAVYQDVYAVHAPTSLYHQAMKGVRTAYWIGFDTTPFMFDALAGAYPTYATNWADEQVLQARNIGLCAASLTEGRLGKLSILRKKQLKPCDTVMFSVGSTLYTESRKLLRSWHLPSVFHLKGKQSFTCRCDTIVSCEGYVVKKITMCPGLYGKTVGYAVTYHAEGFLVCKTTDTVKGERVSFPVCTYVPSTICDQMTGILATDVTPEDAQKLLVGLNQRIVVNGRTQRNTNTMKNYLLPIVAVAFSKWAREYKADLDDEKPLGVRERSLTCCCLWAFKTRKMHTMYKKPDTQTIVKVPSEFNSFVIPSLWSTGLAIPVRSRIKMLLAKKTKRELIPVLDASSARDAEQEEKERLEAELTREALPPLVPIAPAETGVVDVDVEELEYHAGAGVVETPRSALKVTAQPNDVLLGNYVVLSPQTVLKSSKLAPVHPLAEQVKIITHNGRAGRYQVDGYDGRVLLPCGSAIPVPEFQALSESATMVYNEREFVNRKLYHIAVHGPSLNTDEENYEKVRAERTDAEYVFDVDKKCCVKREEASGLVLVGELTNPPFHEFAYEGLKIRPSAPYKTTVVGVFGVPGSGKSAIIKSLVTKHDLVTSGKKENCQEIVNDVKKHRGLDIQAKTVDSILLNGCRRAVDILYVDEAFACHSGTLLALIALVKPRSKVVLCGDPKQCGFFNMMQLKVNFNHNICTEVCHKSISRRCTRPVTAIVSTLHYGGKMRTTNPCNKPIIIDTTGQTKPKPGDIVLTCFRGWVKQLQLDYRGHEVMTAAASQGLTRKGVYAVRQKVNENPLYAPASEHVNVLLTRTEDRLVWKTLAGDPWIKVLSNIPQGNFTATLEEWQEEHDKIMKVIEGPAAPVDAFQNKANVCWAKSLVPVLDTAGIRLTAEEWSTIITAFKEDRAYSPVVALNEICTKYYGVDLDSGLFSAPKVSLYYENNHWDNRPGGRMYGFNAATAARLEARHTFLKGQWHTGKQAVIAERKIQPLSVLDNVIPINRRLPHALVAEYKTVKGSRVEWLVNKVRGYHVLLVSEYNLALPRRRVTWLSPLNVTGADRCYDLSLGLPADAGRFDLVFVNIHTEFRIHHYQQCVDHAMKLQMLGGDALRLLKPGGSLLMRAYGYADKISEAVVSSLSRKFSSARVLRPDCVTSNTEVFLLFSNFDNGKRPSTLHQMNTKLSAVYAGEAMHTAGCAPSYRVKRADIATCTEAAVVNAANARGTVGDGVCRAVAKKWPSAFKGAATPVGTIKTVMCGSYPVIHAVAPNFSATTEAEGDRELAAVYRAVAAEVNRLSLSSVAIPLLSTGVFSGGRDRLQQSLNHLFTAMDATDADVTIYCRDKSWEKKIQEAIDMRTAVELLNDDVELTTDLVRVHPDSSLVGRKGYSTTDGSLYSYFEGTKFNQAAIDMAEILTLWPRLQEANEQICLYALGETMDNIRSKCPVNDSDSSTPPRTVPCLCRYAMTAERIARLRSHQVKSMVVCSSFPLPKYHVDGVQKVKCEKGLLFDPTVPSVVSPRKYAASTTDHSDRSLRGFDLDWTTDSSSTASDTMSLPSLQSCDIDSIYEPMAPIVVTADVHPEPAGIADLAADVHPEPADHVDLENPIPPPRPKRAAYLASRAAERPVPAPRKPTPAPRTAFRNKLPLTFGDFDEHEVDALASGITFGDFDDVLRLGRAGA
Sequence of SFV nsP4 (RdRp) with SFV P123, trans-replicase (P08411 1819-2431): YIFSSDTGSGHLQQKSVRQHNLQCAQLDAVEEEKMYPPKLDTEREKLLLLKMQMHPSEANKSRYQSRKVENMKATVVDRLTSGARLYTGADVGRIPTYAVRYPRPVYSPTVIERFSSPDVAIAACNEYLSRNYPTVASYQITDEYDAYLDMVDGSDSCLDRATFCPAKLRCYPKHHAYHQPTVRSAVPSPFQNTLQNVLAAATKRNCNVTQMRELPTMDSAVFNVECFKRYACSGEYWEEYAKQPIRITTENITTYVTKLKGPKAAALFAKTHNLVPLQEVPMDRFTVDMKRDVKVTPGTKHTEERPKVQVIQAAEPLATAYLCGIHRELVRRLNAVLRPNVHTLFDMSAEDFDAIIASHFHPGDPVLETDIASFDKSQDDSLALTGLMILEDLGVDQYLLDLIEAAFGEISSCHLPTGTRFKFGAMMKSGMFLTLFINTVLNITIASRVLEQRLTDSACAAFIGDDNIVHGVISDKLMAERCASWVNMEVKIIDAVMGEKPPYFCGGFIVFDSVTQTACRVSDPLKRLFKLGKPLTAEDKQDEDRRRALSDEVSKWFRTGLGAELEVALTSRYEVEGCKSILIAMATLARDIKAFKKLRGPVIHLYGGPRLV

Sequence of CHIKV nsP4 (RdRp) with SFV P123, mixed trans-replicase (Q8JUX6 1864-2474): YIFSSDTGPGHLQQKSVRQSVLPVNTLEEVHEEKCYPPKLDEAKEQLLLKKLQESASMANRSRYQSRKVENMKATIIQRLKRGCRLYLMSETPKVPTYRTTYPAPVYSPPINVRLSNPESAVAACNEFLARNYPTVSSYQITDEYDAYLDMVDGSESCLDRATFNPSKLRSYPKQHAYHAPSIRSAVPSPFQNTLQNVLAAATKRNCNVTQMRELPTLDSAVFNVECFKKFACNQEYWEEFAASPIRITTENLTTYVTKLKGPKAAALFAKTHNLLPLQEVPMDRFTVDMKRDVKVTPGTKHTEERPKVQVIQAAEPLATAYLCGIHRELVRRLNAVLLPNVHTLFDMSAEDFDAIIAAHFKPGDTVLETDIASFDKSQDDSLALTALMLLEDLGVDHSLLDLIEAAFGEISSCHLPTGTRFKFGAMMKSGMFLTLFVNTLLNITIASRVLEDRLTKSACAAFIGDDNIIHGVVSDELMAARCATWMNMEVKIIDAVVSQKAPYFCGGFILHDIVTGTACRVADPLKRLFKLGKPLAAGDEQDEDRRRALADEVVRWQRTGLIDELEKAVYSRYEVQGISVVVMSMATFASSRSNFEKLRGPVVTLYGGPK
Sequence of CHIKV nsP4 (RdRp) with SFV P123, mixed trans-replicase (P08411 1-1818, further chain): as the sequence (P08411 1-1818) above

## O=c1ccn([C@@H]2O[C@](F)(CO)[C@@H](O)[C@H]2O)c(=O)[nH]1 [4′-fluorouridine]
[1]
  EC50: 640 nM
[2]
  EC50: 2100 nM
